pIC50: −log10 of the molar value. Entries after “also recorded” stand apart in the source; their conditions may differ.
Legend:
Format in all cases: cell-based
[1] = system: pS6K1 T389 in PC3 cells (mTORC1 pathway); assay: Western blot based pS6K1 assay (mTORC1 pathway); conditions: 24 hours
Description: (§1) Example 76: Western Blot Based pS6K1 and pAKT Assay at 24 and 48 Hour Timepoints
(§2) Assay Protocol: • 1. Seed six well plate with 500,000 PC3 cells per well and incubate for […]. • 2. Add compounds into the cell plate. Incubate for 24 to 48 hours. • 4. Plate is placed on ice and the media is removed via aspiration. The wells are washed with 1 mL of 1×PBS and then fully aspirated. • 5. 110 μL of 1% Triton Lysis Buffer is added and each well is scraped vigorously. • 6. Cell homogenates are transferred to 1.5 mL eppendorf tubes on ice and spun down at 4° C. for 10 minutes at 10,000 rpm. • 7. Protein concentration of resulting cell lysates were quantified utilizing a Bradford assay and the samples run analyzed via Western blot on 4-12% Bis/Tris gels with 1×MES buffer. • 8. The gels were transferred onto membranes at 50V for 100 minutes, blocked with Odyssey Blocking buffer for 30 minutes then incubated overnight with primary antibody (pS6K1 T389 Rabbit or pAkt S473 Rabbit) overnight at 4° C. on a rotator. • 9. The membranes were washed 3× with TBS-T with a 5 minute incubation between each wash then incubated with secondary antibody (LiCor IRDye 800 Donkey Anti Rabbit) for at least 30 minutes. • 10. The membranes were washed 3× with TBS-T with a 5 minute incubation between each wash. • 11. The gels were then incubated for 5 minutes with PBS at room temperature then imaged using a Li-Cor.
PC3 cells were treated with everolimus (0.1 μM, 0.01 μM, and 0.001 μM) or I-9 ([…], 0.1 μM, 0.01 μM, and 0.001 μM) for 24 hours.
The methods employed were substantially similar to those described above. Compounds were evaluated in PC3 cells. Additional cell lines that may be used include Jurkat cells, wild-type mouse embryotic fibroblast (MEF) cells, tuberous sclerosis 2 (TSC2) negative (TSC−/−) MEF cells, and tuberous sclerosis 2 (TSC2) positive (TSC+/+) MEF cells. Cells are incubated with compounds of the present invention for various time periods (e.g., 5 minutes, 15 minutes, 30 minutes, 90 minutes, 24 hours, or 48 hours), and evaluated according to known methodologies, such as those herein described.

pS6K1 in MCF7 = assay: AlphaLISA Ultra pS6K1 Assay; conditions: Homo sapiens, 1.5 h; MCF7 cells, 90 min incubation
Description: Example 74: AlphaLISA Ultra pS6K1 Assay
Assay Protocol: • 1. Seed MCF-7 cells in Corning 3701 plate and incubate for 20˜24 hour. 12,000˜16,000 cells will be seeded in 36 μL medium per well. • 2. Change the culture medium with fresh medium and incubate for another 2 hours. • 3. Add 12 μL (4×) compounds into the cell plate by HAMILTON. Final DMSO concentration is 0.5%. Incubate for 90 minutes. • 4. Aspirate 38 μL by HAMILTON, 10 μL rest per well. • 5. Add 10 μL 2× lysis buffer using HAMILTON; total volume in wells is 20 μL. Allow cells to shake for 30 min. Cover plate by plastic foil and store plate at −80° C. up to analysis. • 6. Thaw cell lysate at RT and transfer 10 μL lysate to assay plate (Optiplate-384). • 7. Add 5 μL acceptor beads into assay plate and incubation for 2 hours • 8. Add 5 μL donor beads and incubation for 2 hours • 9. Count the plate by EnSpire Multimode Plate Reader

mTORC1 over mTORC2 = assay: mTORC1 selectivity over mTORC2 at 24 hrs (pS6K1 and pAKT assays); conditions: for mTORC1 selective @ 24 hrs: selectivity for mTORC1 over mTORC2 at 24 hrs
Description: as §1, §2
The compound numbers correspond to the compound numbers in Table 1.
Compounds that are not selective at the 24 hrs mark are indicated by “NO” in the “mTORC1 selective @ 24 hrs” column of Table 4. Compounds that partially retain selectivity for mTORC1 inhibition over mTORC2 are indicated by “Partial” in the “mTORC1 selective @ 24 hrs” column of Table 4.

[2] = system: pAkt S473 in PC3 cells (mTORC2); assay: Western blot based pAKT assay (mTORC2 pathway); conditions: 24 hours
Description: as §1
as §2, with “The membranes were washed 3× with TBS-T with a 5 minute incubation between each wash then incubated with secondary antibody (LiCor IRDye 800 Donkey Anti Rabbit) for at least 30 minutes. • 10. The membranes were washed 3× with TBS-T with a 5 minute incubation between each wash. • 11. The gels were then incubated for 5 minutes with PBS at room temperature then imaged using a Li-Cor.” left out
The methods employed were substantially similar to those described above. Compounds were evaluated in PC3 cells. […] Cells are incubated with compounds of the present invention for various time periods (e.g., 5 minutes, 15 minutes, 30 minutes, 90 minutes, 24 hours, or 48 hours), and evaluated according to known methodologies, such as those herein described.

Structure (SMILES)	inhibition of the mTORC1 pathway (pS6K1, Western blot) [1]	pIC50 (pS6K1 in MCF7)	mTORC1 selective @ 24 hrs (mTORC1 over mTORC2)	other results
CO[C@@H]1C[C@H](C[C@@H](C)[C@@H]2CC(=O)[C@H](C)/C=C(\C)[C@@H](O)[C@@H](OC)C(=O)[C@H](C)C[C@H](C)/C=C/C=C/C=C(\C)[C@@H](OCCC3CCNC3=O)C[C@@H]3CC[C@@H](C)[C@@](O)(O3)C(=O)C(=O)N3CCCC[C@H]3C(=O)O2)CC[C@H]1OCCO (stereo partly drawn) [Example I-3, (23E,25E,27E,28E,34R,35S,36R,37R,39S,42S,44S,45S,46R,47R,57R)-46,57-dihydroxy-45-[(1R)-2-[(1S,3R,4R)-4-(2-hydroxyethoxy)-3-methoxy-cyclohexyl]-1-methyl-ethyl]-47-methoxy-34,35,36,37,48,49-hexamethyl-44-[2-(2-oxopyrrolidin-3-yl)ethoxy]-69,70-dioxa-59-azatricyclohexatriaconta-23,25,27(48),28(49)-tetraene-50,51,53,54,55-pentone]	strong inhibition			
CO[C@@H]1C[C@H](C[C@@H](C)[C@@H]2CC(=O)[C@H](C)/C=C(\C)[C@@H](O)[C@@H](OC)C(=O)[C@H](C)C[C@H](C)/C=C/C=C/C=C(\C)[C@@H](OCCOc3ccccc3)C[C@@H]3CC[C@@H](C)[C@@](O)(O3)C(=O)C(=O)N3CCCC[C@H]3C(=O)O2)CC[C@H]1OCCO [Example I-7, (26E,28E,30E,31E,38R,39S,40R,41R,43S,45S,47S,48S,49R,50R,59R)-49,59-dihydroxy-48-[(1R)-2-[(1S,3R,4R)-4-(2-hydroxyethoxy)-3-methoxy-cyclohexyl]-1-methyl-ethyl]-50-methoxy-38,39,40,41,51,52-hexamethyl-47-(2-phenoxyethoxy)-69,70-dioxa-60-azatricyclohexatriaconta-26,28,30(51),31(52)-tetraene-53,54,55,56,57-pentone]		8.00 to 9.00	Yes	
CO[C@@H]1C[C@H](C[C@@H](C)[C@@H]2CC(=O)[C@H](C)/C=C(\C)[C@@H](O)[C@@H](OC)C(=O)[C@H](C)C[C@H](C)/C=C/C=C/C=C(\C)[C@@H](OCCCC3CCNC3=O)C[C@@H]3CC[C@@H](C)[C@@](O)(O3)C(=O)C(=O)N3CCCC[C@H]3C(=O)O2)CC[C@H]1OCCO (stereo partly drawn) [Example I-15, (23E,25E,27E,28E,35R,36S,37R,38R,40S,43S,45S,46S,47R,48R,58R)-47,58-dihydroxy-46-[(1R)-2-[(1S,3R,4R)-4-(2-hydroxyethoxy)-3-methoxy-cyclohexyl]-1-methyl-ethyl]-48-methoxy-35,36,37,38,49,50-hexamethyl-45-[3-(2-oxopyrrolidin-3-yl)propoxy]-70,71-dioxa-60-azatricyclohexatriaconta-23,25,27(49),28(50)-tetraene-51,52,54,55,56-pentone]	strong inhibition			
CO[C@@H]1C[C@H](C[C@@H](C)[C@@H]2CC(=O)[C@H](C)/C=C(\C)[C@@H](O)[C@@H](OC)C(=O)[C@H](C)C[C@H](C)/C=C/C=C/C=C(\C)C(OCCCCS(N)(=O)=O)C[C@@H]3CC[C@@H](C)[C@@](O)(O3)C(=O)C(=O)N3CCCC[C@H]3C(=O)O2)CC[C@H]1OCCO (stereo partly shown) [Example I-19]				selectivity over mTORC2 as measured by the impact of pAKT (mTORC1 over mTORC2; at 24 hours, depends on size of C-7 group): marked selectivity
CO[C@@H]1C[C@H](C[C@@H](C)[C@@H]2CC(=O)[C@H](C)/C=C(\C)[C@@H](O)[C@@H](OC)C(=O)[C@H](C)C[C@H](C)/C=C/C=C/C=C(\C)[C@@H](OCCCCCO)C[C@@H]3CC[C@@H](C)[C@@](O)(O3)C(=O)C(=O)N3CCCC[C@H]3C(=O)O2)CC[C@H]1O [Example I-35, (21E,23E,25E,26E,33R,34S,35R,36R,38S,40S,42S,43S,44R,45R,54R)-44,54-dihydroxy-43-[(1R)-2-[(1S,3R,4R)-4-hydroxy-3-methoxy-cyclohexyl]-1-methyl-ethyl]-42-(5-hydroxypentoxy)-45-methoxy-33,34,35,36,46,47-hexamethyl-65,66-dioxa-55-azatricyclohexatriaconta-21,23,25(46),26(47)-tetraene-48,49,50,51,52-pentone]		9.00 to 10.00	Yes	
CO[C@@H]1C[C@H](C[C@@H](C)[C@@H]2CC(=O)[C@H](C)/C=C(\C)[C@@H](O)[C@@H](OC)C(=O)[C@H](C)C[C@H](C)/C=C/C=C/C=C(\C)[C@@H](OCCCO)C[C@@H]3CC[C@@H](C)[C@@](O)(O3)C(=O)C(=O)N3CCCC[C@H]3C(=O)O2)CC[C@H]1O [Example I-36, (21E,23E,25E,26E,31R,32S,33R,34R,36S,38S,40S,41S,42S,43R,52R)-42,52-dihydroxy-41-[(1R)-2-[(1S,3R,4R)-4-hydroxy-3-methoxy-cyclohexyl]-1-methyl-ethyl]-40-(3-hydroxypropoxy)-43-methoxy-31,32,33,34,44,45-hexamethyl-63,64-dioxa-53-azatricyclohexatriaconta-21,23,25(44),26(45)-tetraene-46,47,48,49,50-pentone]		9.00 to 10.00	Yes	
CO[C@@H]1C[C@H](C[C@@H](C)[C@@H]2CC(=O)[C@H](C)/C=C(\C)[C@@H](O)[C@@H](OC)C(=O)[C@H](C)C[C@H](C)/C=C/C=C/C=C(\C)[C@@H](OCCCCC(N)=O)C[C@@H]3CC[C@@H](C)[C@@](O)(O3)C(=O)C(=O)N3CCCC[C@H]3C(=O)O2)CC[C@H]1OCCO [Example I-48]	strong inhibition			
CO[C@@H]1C[C@H](C[C@@H](C)[C@@H]2CC(=O)[C@H](C)/C=C(\C)[C@@H](O)[C@@H](OC)C(=O)[C@H](C)C[C@H](C)/C=C/C=C/C=C(\C)[C@@H](OCCS(=O)(=O)CCS(=O)(=O)CCO)C[C@@H]3CC[C@@H](C)[C@@](O)(O3)C(=O)C(=O)N3CCCC[C@H]3C(=O)O2)CC[C@H]1O [Example I-65, (21E,23E,25E,26E,34R,35S,36R,37R,39S,41S,43S,44S,45R,46R,55R)-45,55-dihydroxy-43-[2-[2-(2-hydroxyethylsulfonyl)ethylsulfonyl]ethoxy]-44-[(1R)-2-[(1S,3R,4R)-4-hydroxy-3-methoxy-cyclohexyl]-1-methyl-ethyl]-46-methoxy-34,35,36,37,47,48-hexamethyl-70,71-dioxa-56-azatricyclohexatriaconta-21,23,25(47),26(48)-tetraene-49,50,51,52,53-pentone]	strong inhibition			
CO[C@H]1C[C@@H]2CC[C@@H](C)[C@@](O)(O2)C(=O)C(=O)N2CCCC[C@H]2C(=O)O[C@H]([C@H](C)C[C@@H]2CC[C@@H](OCCO)[C@H](OC)C2)CC(=O)[C@H](C)/C=C(\C)[C@@H](O)[C@@H](OC)C(=O)[C@H](C)C[C@H](C)/C=C/C=C/C=C/1C [everolimus, reference compound]	reduction in pS6K1; also recorded: strong inhibition			inhibition of mTORC2 (Akt phosphorylation, pAkt, Western blot) [2]: inhibition of S6K1 phosphorylation (S^473)

— patent US11819476B2, “Rapamycin analogs and uses thereof” (Janssen Pharmaceutica NV, priority 2019, dated 2023)
